Converted amounts (≈) assume the structure as drawn. Where two headings read alike, the source gives them in different places.
Experiments:
[1] = tested on: MRSA and MSSA; assay: Antibacterial activity of gallic acid, various gallates and multivalent phenol derivatives alone (agar plate dilution method, MIC); assay type: cell-based, Staphylococcus aureus; conditions: Staphylococcus aureus
Procedure: (§1) According to the agar plate dilution method defined by Japan Society of Chemotherapy, MIC (Minimum inhibitory concentration) was determined. CAMHA was prepared by adding 50 mg/l of Ca-ion, 25 mg/l of Mg-ion, and 2% of NaCl to Mueller-Hinton II Agar (MHA), and it was used as a medium for use in the measurement of sensitivity. The bacterial liquid was incubated at 37° C. overnight and diluted to 10^6 CFU/ml with saline.
MIC for gallic acid, various gallates and multivalent phenol derivatives alone with MRSA and MSSA were determined as described in experiment 2.

[2] = tested on: MRSA; assay: Potentiating effect of galloyl quinic acid derivatives for the antibacterial activity of oxacillin (agar plate dilution method, MIC); assay type: cell-based, Staphylococcus aureus
Procedure: as §1
It was confirmed that the known substances shown below were contained in “Tara” and their MICs were determined as described in example 2 with respect to the effects of the combination use with oxacillin

[3] = COL, compound alone, read-out: MIC
[4] = MRSA #1, compound alone, read-out: MIC
[5] = MRSA #2, compound alone, read-out: MIC
[6] = MRSA #3, compound alone, read-out: MIC
[7] = MRSA #4, compound alone, read-out: MIC
[8] = MRSA #5, compound alone, read-out: MIC
[9] = MRSA #6, compound alone, read-out: MIC
[10] = MRSA #7, compound alone, read-out: MIC
[11] = MRSA #8, compound alone, read-out: MIC
[12] = MRSA #9, compound alone, read-out: MIC
[13] = MRSA #10, compound alone, read-out: MIC
[14] = MRSA #12, compound alone, read-out: MIC
[15] = MRSA #16, compound alone, read-out: MIC
[16] = MRSA #17, compound alone, read-out: MIC
[17] = MRSA #18, compound alone, read-out: MIC
[18] = MRSA #20, compound alone, read-out: MIC
[19] = MRSA #21, compound alone, read-out: MIC
[20] = MRSA #22, compound alone, read-out: MIC
[21] = MRSA #24, compound alone, read-out: MIC
[22] = MSSA #1003, compound alone, read-out: MIC
[23] = MSSA #1010, compound alone, read-out: MIC
[24] = MSSA #1020, compound alone, read-out: MIC
[25] = MSSA #1023, compound alone, read-out: MIC
[26] = MSSA #1029, compound alone, read-out: MIC
[27] = MSSA #1032, compound alone, read-out: MIC
[28] = ATCC 6538 / MRSA / MSSA, ATCC6538, compound alone, read-out: MIC
[29] = over all strains of Table 3-2, compound alone, read-out: MIC50

Compound	MIC [1, 3]	MIC [1, 4]	MIC [1, 5]	MIC [1, 6]	MIC [1, 7]	MIC [1, 8]	MIC [1, 9]	MIC [1, 10]	MIC [1, 11]	MIC [1, 12]	MIC [1, 13]	MIC [1, 14]	MIC [1, 15]	MIC [1, 16]	MIC [1, 17]	MIC [1, 18]	MIC [1, 19]	MIC [1, 20]	MIC [1, 21]	MIC [1, 22]	also measured
CCCCCOC(=O)c1ccc(O)cc1 [n-Amyl 4-hydroxybenzoate]	62.5 µg/mL (≈ 300 µM)	62.5 µg/mL (≈ 300 µM)	62.5 µg/mL (≈ 300 µM)	62.5 µg/mL (≈ 300 µM)	62.5 µg/mL (≈ 300 µM)	62.5 µg/mL (≈ 300 µM)	31.3 µg/mL (≈ 150 µM)	62.5 µg/mL (≈ 300 µM)	31.3 µg/mL (≈ 150 µM)	31.3 µg/mL (≈ 150 µM)	62.5 µg/mL (≈ 300 µM)	62.5 µg/mL (≈ 300 µM)	62.5 µg/mL (≈ 300 µM)	62.5 µg/mL (≈ 300 µM)	62.5 µg/mL (≈ 300 µM)	62.5 µg/mL (≈ 300 µM)	62.5 µg/mL (≈ 300 µM)	62.5 µg/mL (≈ 300 µM)	62.5 µg/mL (≈ 300 µM)	62.5 µg/mL (≈ 300 µM)	MIC50 [1]: 62.5 µg/mL (≈ 300 µM); MIC ([1]; ATCC 6538 / MRSA / MSSA): 62.5 µg/mL (≈ 300 µM); MIC [1, 23]: 62.5 µg/mL (≈ 300 µM); MIC [1, 24]: 62.5 µg/mL (≈ 300 µM); MIC [1, 25]: 31.3 µg/mL (≈ 150 µM); MIC [1, 26]: 62.5 µg/mL (≈ 300 µM); MIC [1, 27]: 62.5 µg/mL (≈ 300 µM)
CC(=O)c1ccc(O)c(O)c1O [2′,3′,4′-trihydroxyacetophenone]	62.5 µg/mL (≈ 372 µM)	62.5 µg/mL (≈ 372 µM)	62.5 µg/mL (≈ 372 µM)	62.5 µg/mL (≈ 372 µM)	62.5 µg/mL (≈ 372 µM)	62.5 µg/mL (≈ 372 µM)	31.3 µg/mL (≈ 186 µM)	62.5 µg/mL (≈ 372 µM)	62.5 µg/mL (≈ 372 µM)	62.5 µg/mL (≈ 372 µM)	31.3 µg/mL (≈ 186 µM)	62.5 µg/mL (≈ 372 µM)	62.5 µg/mL (≈ 372 µM)	62.5 µg/mL (≈ 372 µM)	62.5 µg/mL (≈ 372 µM)	62.5 µg/mL (≈ 372 µM)	62.5 µg/mL (≈ 372 µM)	62.5 µg/mL (≈ 372 µM)	62.5 µg/mL (≈ 372 µM)	62.5 µg/mL (≈ 372 µM)	MIC [1, 28]: 62.5 µg/mL (≈ 372 µM); MIC [1, 23]: 62.5 µg/mL (≈ 372 µM); MIC [1, 24]: 62.5 µg/mL (≈ 372 µM); MIC [1, 25]: 31.3 µg/mL (≈ 186 µM); MIC [1, 26]: 31.3 µg/mL (≈ 186 µM); MIC [1, 27]: 62.5 µg/mL (≈ 372 µM); MIC50 [1, 29]: 62.5 µg/mL (≈ 372 µM)
CCCCCCCCCCCCCCCCOC(=O)c1cc(O)c(O)c(O)c1 [Cetyl gallate]	250 µg/mL (≈ 634 µM)	> 250 µg/mL	250 µg/mL (≈ 634 µM)	> 250 µg/mL	> 250 µg/mL	> 250 µg/mL	125 µg/mL (≈ 317 µM)	> 250 µg/mL	> 250 µg/mL	> 250 µg/mL	125 µg/mL (≈ 317 µM)	> 250 µg/mL	> 250 µg/mL	> 250 µg/mL	> 250 µg/mL	> 250 µg/mL	> 250 µg/mL	> 250 µg/mL	> 250 µg/mL	> 250 µg/mL	MIC [1, 28]: > 250 µg/mL; MIC [1, 23]: > 250 µg/mL; MIC [1, 24]: > 250 µg/mL; MIC [1, 25]: > 250 µg/mL; MIC [1, 26]: 250 µg/mL (≈ 634 µM); MIC [1, 27]: 250 µg/mL (≈ 634 µM); MIC50 [1, 29]: > 250 µg/mL
O=C(OC1CC(O)(C(=O)O)CC(O)C1OC(=O)c1cc(O)c(O)c(O)c1)c1cc(O)c(O)c(O)c1 (stereo not shown) [3,4-digalloylquinic acid]																					effect of combination use with oxacillin (words) [2]: weak effects
